{"source": "paper PMC12715762", "about": "“Discovery of VU6052254: A Novel, Potent M1 Positive Allosteric Modulator” (ACS Chemical Neuroscience, 2025)", "key": {"[1]": {"experiment": "plasma protein binding, equilibrium dialysis (rat)", "type": "in vitro ADME", "conditions": "pH 7.4, rat (r), read-out: fu,plasma", "procedure": "Plasma protein binding and Brain homogenate binding: Determination of fraction unbound (f u) in plasma was conducted in vitro via equilibrium dialysis using HTDialysis (HTD) membrane plates. The top half of the plate was filled with 100 uL of Dubelco’s Phosphate Buffered Saline, pH 7.4 (DPBS). Compounds were diluted into plasma from each species (5 µM final concentration), which was aliquoted in triplicate to the ‘bottom half’ of the prepared HTD plate wells. The HTD plate was sealed and incubated for 6 hours at 37 °C. Following incubation, each well (both top and bottom halves) were transferred (20 µL) to the corresponding wells of a 96-shallow-well (V-bottom) plate. […]\nThe unbound fraction (f u) was calculated following the equation below, and mean values for each species were calculated from 3 replicates.\nA similar approach was used to determine the degree of brain homogenate binding, which employed the same methodology and procedure with the following modifications: 1) a final compound concentration of 1 μM was used, 2) naïve rat brains were homogenized in DPBS (1:3 composition of brain: DPBS, w/w) using a Mini-Bead Beater™ machine in order to obtain brain homogenate, which was then treated in the same manner as the plasma samples in the previously described plasma protein binding assay. Fraction unbound for both plasma and brain samples was determined using Equation 4. […]"}, "CYP 2C9": {"target": "CYP 2C9 (Homo sapiens, UniProt P11712)", "sequence (P11712 whole entry)": "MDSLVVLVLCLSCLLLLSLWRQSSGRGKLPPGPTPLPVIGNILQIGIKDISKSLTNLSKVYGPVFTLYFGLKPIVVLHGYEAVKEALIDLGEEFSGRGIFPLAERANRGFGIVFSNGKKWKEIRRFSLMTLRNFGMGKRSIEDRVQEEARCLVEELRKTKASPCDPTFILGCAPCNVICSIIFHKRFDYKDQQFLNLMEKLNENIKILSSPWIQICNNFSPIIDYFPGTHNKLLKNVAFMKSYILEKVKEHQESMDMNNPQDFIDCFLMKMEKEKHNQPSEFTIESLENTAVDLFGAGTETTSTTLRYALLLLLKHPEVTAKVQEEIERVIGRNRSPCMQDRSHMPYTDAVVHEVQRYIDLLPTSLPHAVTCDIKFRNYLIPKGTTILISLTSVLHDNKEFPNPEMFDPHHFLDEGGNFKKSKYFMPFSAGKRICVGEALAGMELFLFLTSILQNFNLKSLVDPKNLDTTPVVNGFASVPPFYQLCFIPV", "experiment": "CYP450 inhibition", "type": "in vitro ADME"}, "CYP 2C19": {"target": "CYP 2C19 (Homo sapiens, UniProt P33261)", "sequence (P33261 whole entry)": "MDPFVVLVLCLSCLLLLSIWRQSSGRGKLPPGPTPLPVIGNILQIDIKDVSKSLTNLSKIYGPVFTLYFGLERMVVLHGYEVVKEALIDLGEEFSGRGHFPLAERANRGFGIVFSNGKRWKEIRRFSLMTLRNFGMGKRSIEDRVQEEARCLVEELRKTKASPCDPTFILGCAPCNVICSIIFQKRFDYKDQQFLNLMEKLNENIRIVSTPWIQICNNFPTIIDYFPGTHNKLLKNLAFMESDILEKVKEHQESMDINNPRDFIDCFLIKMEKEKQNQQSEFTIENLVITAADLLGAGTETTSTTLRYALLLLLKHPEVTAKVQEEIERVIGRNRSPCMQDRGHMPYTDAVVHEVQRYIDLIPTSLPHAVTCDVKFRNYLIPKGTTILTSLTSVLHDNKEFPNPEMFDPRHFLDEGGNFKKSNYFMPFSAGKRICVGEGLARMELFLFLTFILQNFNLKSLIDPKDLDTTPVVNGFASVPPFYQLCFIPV", "experiment": "CYP450 inhibition", "type": "in vitro ADME"}, "[2]": {"experiment": "IV/PO pharmacokinetics (NHP)", "type": "in vivo", "conditions": "NHP (cyno)"}, "M1 KO mice": {"test_system": "M1 KO mice", "experiment": "Racine seizure assay in M1 KO mice", "type": "in vivo, mouse", "conditions": "result in words"}, "3A4": {"test_system": "3A4", "experiment": "CYP induction repeated at a different CRO (mRNA and protein)", "type": "cell-based", "conditions": "result in words"}, "[3]": {"experiment": "14-day rat toxicology and toxicokinetic study", "type": "in vivo", "conditions": "both sexes, rat, plasma, po, PEG-400, rat", "procedure": "(§1) PAM 7, after a 250 g scale-up, advanced into 14-day rat toxicology studies, with vehicle (PEG-400), 30 mg/kg PO and 300 mg/kg PO cohorts, N = 6 per sex per cohort. […] Higher serum creatinine concentrations were however noted in males at both dose levels (+100% at 30 mg/kg/day and +300% at 300 mg/kg/day). […] Based on the observations of correlative clinical and anatomic kidney toxicity findings in an exploratory 14-day toxicity and toxicokinetics rat study, in conjunction with uncertain margins to projected systemic human therapeutic efficacy and CYP3A4 induction concerns, the development of PAM 7 was discontinued."}, "rats": {"test_system": "rats", "experiment": "14-day rat toxicology and toxicokinetic study", "type": "in vivo", "conditions": "for cholinergic/SLUDGE adverse effects in 14-day rat study: 30 and 300 mg/kg PO; for change in serum creatinine concentration: males", "procedure": "as §1"}, "Adenosine A2A": {"target": "Adenosine A2A (Homo sapiens, UniProt P29274)", "sequence (P29274 whole entry)": "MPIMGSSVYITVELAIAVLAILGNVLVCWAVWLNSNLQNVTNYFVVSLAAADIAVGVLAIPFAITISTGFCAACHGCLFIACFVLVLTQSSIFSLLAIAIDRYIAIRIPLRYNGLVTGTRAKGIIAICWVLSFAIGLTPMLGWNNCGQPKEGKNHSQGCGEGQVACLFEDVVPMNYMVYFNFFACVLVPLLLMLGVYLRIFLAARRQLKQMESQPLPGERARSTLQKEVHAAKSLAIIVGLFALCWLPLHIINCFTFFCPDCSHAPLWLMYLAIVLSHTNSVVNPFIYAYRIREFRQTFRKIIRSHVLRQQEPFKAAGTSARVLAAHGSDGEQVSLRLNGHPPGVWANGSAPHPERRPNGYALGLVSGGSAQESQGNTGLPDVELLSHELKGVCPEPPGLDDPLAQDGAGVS", "experiment": "Eurofins radioligand binding"}, "Adrenergic α1A": {"target": "Adrenergic α1A (Homo sapiens, UniProt P35348)", "sequence (P35348 whole entry)": "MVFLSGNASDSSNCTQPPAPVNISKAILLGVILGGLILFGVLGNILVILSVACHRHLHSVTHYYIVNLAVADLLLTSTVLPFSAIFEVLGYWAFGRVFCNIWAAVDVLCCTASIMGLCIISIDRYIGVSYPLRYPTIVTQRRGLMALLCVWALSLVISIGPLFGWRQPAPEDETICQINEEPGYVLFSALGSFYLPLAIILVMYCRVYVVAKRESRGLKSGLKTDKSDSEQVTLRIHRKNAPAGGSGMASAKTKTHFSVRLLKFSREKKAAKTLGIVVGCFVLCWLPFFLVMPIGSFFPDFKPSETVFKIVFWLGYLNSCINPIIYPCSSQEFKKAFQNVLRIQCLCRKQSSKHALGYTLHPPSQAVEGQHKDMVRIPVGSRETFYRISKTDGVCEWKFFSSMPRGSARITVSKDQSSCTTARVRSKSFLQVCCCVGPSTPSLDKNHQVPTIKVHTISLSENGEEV", "experiment": "Eurofins radioligand binding"}, "[4]": {"test_system": "Calcium Channel L-Type, Dihydropyridine", "experiment": "Eurofins radioligand binding", "conditions": "Rat"}, "Dopamine D4.2": {"target": "Dopamine D4.2 (Homo sapiens, UniProt P21917, DEL265-296)", "experiment": "Eurofins radioligand binding"}, "GABAA, Muscimol, Central": {"test_system": "GABAA, Muscimol, Central", "experiment": "Eurofins radioligand binding", "conditions": "Rat"}, "[5]": {"target": "Nicotinic Acetylcholine α3β4 (Homo sapiens, UniProt P30926+P32297)", "experiment": "Eurofins radioligand binding"}, "Opiate κ (OP2, KOP)": {"target": "Opiate κ (OP2, KOP) (Homo sapiens, UniProt P41145)", "sequence (P41145 whole entry)": "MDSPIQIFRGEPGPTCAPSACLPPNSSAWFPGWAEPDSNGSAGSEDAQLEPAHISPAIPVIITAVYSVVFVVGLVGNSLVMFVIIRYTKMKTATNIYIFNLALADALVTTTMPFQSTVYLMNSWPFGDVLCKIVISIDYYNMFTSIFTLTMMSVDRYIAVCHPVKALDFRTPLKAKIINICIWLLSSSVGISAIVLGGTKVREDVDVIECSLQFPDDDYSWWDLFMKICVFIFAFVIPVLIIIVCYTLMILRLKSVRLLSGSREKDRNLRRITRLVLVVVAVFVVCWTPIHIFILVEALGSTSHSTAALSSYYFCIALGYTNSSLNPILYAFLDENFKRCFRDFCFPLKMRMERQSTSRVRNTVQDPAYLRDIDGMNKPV", "experiment": "Eurofins radioligand binding"}, "[6]": {"target": "Platelet Activating Factor (PAF) (Homo sapiens, UniProt P25105)", "sequence (P25105 whole entry)": "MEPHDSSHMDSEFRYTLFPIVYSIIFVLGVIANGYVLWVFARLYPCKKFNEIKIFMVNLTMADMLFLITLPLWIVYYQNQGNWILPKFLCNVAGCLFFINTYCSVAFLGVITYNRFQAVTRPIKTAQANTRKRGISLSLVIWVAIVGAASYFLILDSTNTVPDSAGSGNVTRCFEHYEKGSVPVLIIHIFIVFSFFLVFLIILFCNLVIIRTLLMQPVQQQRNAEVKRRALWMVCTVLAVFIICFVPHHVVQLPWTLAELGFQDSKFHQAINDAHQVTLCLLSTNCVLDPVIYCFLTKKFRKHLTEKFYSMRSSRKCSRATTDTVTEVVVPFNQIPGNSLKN", "experiment": "Eurofins radioligand binding"}, "Potassium Channel [KATP]": {"target": "Potassium Channel [KATP] (Cricetus cricetus, UniProt Q09427)", "experiment": "Eurofins radioligand binding", "conditions": "Hamster"}, "hERG potassium channel": {"target": "hERG potassium channel (Homo sapiens, UniProt Q12809)", "sequence (Q12809 whole entry)": "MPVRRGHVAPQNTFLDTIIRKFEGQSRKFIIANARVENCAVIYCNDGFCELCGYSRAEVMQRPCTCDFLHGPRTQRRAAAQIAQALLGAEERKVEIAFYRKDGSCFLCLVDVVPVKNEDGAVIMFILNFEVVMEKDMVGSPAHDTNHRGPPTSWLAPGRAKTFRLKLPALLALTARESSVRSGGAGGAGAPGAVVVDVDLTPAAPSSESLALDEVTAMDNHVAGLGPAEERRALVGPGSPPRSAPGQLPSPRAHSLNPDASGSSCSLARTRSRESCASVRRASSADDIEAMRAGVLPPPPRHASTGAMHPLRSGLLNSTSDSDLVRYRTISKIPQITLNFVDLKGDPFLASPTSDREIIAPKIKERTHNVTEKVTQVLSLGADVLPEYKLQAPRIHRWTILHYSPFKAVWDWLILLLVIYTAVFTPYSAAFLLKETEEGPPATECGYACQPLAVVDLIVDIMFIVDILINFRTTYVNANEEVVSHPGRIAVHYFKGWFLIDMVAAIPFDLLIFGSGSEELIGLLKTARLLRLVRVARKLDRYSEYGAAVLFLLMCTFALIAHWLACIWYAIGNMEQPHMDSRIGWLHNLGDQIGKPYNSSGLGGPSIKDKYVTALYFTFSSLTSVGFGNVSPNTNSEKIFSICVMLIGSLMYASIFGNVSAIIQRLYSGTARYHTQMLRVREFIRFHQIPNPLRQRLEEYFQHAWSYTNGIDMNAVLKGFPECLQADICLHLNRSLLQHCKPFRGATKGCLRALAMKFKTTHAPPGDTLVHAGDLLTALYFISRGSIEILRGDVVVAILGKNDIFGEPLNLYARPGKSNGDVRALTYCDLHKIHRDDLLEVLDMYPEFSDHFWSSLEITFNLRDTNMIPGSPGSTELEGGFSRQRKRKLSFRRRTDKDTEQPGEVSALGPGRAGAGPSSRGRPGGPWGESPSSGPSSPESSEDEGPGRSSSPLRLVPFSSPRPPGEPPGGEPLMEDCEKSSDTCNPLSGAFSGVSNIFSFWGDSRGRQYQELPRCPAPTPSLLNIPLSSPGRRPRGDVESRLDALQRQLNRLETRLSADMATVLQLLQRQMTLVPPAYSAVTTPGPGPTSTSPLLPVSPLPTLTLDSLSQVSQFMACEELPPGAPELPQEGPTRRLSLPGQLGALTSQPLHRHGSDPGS", "experiment": "Eurofins radioligand binding"}, "Rolipram": {"test_system": "Rolipram", "experiment": "Eurofins radioligand binding", "conditions": "Rat"}, "Tachykinin NK1": {"target": "Tachykinin NK1 (Homo sapiens, UniProt P25103)", "sequence (P25103 whole entry)": "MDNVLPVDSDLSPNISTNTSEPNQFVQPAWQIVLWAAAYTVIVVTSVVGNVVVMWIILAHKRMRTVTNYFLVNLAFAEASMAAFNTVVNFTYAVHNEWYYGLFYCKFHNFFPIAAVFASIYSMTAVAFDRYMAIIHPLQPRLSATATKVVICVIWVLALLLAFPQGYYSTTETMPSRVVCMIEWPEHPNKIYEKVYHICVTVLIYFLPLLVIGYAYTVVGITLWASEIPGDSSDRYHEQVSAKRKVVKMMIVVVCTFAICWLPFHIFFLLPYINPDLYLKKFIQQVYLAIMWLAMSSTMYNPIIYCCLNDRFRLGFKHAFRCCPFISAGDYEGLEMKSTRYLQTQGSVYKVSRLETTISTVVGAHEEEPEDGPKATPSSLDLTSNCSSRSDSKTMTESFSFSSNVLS", "experiment": "Eurofins radioligand binding"}, "[7]": {"target": "Transporter, Norepinephrine (NET) (Homo sapiens, UniProt P23975)", "sequence (P23975 whole entry)": "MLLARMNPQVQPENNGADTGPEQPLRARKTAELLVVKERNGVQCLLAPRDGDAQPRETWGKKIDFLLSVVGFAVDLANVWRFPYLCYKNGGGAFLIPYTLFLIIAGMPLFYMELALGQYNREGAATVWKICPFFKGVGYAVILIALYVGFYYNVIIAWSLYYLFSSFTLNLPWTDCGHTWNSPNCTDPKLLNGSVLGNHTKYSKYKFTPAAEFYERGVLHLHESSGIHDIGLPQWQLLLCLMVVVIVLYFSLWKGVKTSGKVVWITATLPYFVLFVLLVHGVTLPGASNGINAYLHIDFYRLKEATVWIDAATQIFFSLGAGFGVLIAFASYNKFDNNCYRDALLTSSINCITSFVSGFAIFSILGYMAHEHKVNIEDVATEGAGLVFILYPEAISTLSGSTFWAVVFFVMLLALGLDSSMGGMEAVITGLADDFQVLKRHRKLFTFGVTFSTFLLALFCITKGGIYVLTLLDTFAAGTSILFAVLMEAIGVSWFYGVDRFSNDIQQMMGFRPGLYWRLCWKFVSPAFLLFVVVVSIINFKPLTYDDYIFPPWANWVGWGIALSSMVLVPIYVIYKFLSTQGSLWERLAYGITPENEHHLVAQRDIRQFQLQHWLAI", "experiment": "Eurofins radioligand binding"}, "[8]": {"conditions": "cynomolgus monkey, plasma, 3 mg/kg po"}, "[9]": {"conditions": "300 mg/kg, Day 14, 300 mg/kg PO"}}, "data": [{"smiles": "Cn1cc2c(-c3cc(F)c(CN4Cc5ncccc5C4=O)c(F)c3)ccc(C(C)(C)O)c2n1", "note": "[compound 7]", "values": [{"measurement": "fraction unbound at 6 h, 5 µM", "setting": "[1]", "value": 0.023}, {"measurement": "IC50", "setting": "CYP 2C9", "value": "> 30", "unit": "µM"}, {"measurement": "IC50", "setting": "CYP 2C19", "value": "> 30", "unit": "µM"}, {"measurement": "F (%) po", "setting": "[2]; 3 mg/kg po", "value": 76, "unit": "%"}, {"measurement": "clearance", "setting": "[2]; cynomolgus monkey, plasma, 1 mg/kg iv, read-out: CLp", "value": 7.3, "unit": "mL/min/kg"}, {"measurement": "half-life", "setting": "[2]; cynomolgus monkey, plasma, 1 mg/kg iv, read-out: Elimination t1/2 (converted)", "value": 4.9, "unit": "h"}, {"measurement": "Vd", "setting": "[2]; cynomolgus monkey, plasma, 1 mg/kg iv, read-out: Vss", "value": 1.5, "unit": "L/kg"}, {"measurement": "AUC", "setting": "[2]; [8]", "value": 12.4, "unit": "µM·h"}, {"measurement": "Cmax", "setting": "[2]; [8]", "value": 1.1, "unit": "µM"}, {"measurement": "Tmax", "setting": "[2]; [8]", "value": 4.7, "unit": "h"}, {"measurement": "Racine-scale effects in M1 KO mice", "setting": "M1 KO mice", "value": "absent"}, {"measurement": "3A4 induction, mRNA and protein", "setting": "3A4", "value": "not to be an inducer of 3A4"}, {"measurement": "AUC(0-t)", "setting": "[3]; 30 mg/kg, Day 1, 30 mg/kg PO", "value": 224, "unit": "µM·h"}, {"measurement": "Cmax", "setting": "[3]; 30 mg/kg, Day 1, 30 mg/kg PO", "value": 20.9, "unit": "µM"}, {"measurement": "AUC(0-t)", "setting": "[3]; 30 mg/kg, Day 14, 30 mg/kg PO", "value": 107, "unit": "µM·h"}, {"measurement": "Cmax", "setting": "[3]; 30 mg/kg, Day 14, 30 mg/kg PO", "value": 10, "unit": "µM"}, {"measurement": "AUC(0-t)", "setting": "[3]; 300 mg/kg, Day 1, 300 mg/kg PO", "value": 758, "unit": "µM·h"}, {"measurement": "Cmax", "setting": "[3]; 300 mg/kg, Day 1, 300 mg/kg PO", "value": 37.9, "unit": "µM"}, {"measurement": "AUC(0-t)", "setting": "[3]; [9]", "value": 909, "unit": "µM·h"}, {"measurement": "Cmax", "setting": "[3]; [9]", "value": 52.9, "unit": "µM"}, {"measurement": "microscopic pathology of kidney", "setting": "rats; 300 mg/kg/day, result in words", "value": "pyknotic cells were also seen in collecting tubules, and less extensively, in the renal papilla"}, {"measurement": "cholinergic/SLUDGE adverse effects in 14-day rat study", "setting": "rats; result in words", "value": "No cholinergic/SLUDGE adverse effects were observed"}, {"measurement": "cholinergic/SLUDGE adverse effects in 14-day rat study", "setting": "rats; result in words, listed as VU6052254", "value": "no cholinergic adverse effects"}, {"measurement": "microscopic pathology of renal cortex and medulla", "setting": "rats; both dose levels, result in words", "value": "dose-related increase in number of pyknotic cells in the lumen of descending tubules/proximal collecting tubules"}, {"measurement": "total plasma concentration relative to the plasma concentration at MED in the CFC assay (0.3 mg/kg PO)", "setting": "rats; first of the two printed values (30 mg/kg cohort implied)", "value": 125, "unit": "x"}, {"measurement": "fibrinogen concentration", "setting": "rats; males administered 300 mg/kg, result in words", "value": "minimally higher fibrinogen concentration"}, {"measurement": "hematology test results", "setting": "rats; males administered up to 30 mg/kg, result in words", "value": "no PAM 7-related effects noted in hematology test results"}, {"measurement": "change in serum creatinine concentration", "setting": "rats; 30 mg/kg/day", "value": "+100%"}, {"measurement": "change in serum creatinine concentration", "setting": "rats; 300 mg/kg/day", "value": "+300%"}, {"measurement": "organ weights or histology", "setting": "rats; result in words", "value": "no gross changes on organ weights or histology"}, {"measurement": "total plasma concentration relative to the plasma concentration at MED in the CFC assay (0.3 mg/kg PO)", "setting": "rats; second of the two printed values (300 mg/kg cohort implied)", "value": 227, "unit": "x"}, {"measurement": "inhibition at 10 µM", "setting": "Adenosine A2A", "value": 3, "unit": "%"}, {"measurement": "inhibition at 10 µM", "setting": "Adrenergic α1A", "value": 13, "unit": "%"}, {"measurement": "% Inhibition at 10 µM", "setting": "[4]", "value": 59, "unit": "%"}, {"measurement": "inhibition at 10 µM", "setting": "Dopamine D4.2", "value": -5, "unit": "%"}, {"measurement": "% Inhibition at 10 µM", "setting": "GABAA, Muscimol, Central", "value": -10, "unit": "%"}, {"measurement": "inhibition at 10 µM", "setting": "[5]", "value": 4, "unit": "%"}, {"measurement": "inhibition at 10 µM", "setting": "Opiate κ (OP2, KOP)", "value": 15, "unit": "%"}, {"measurement": "inhibition at 10 µM", "setting": "[6]", "value": 1, "unit": "%"}, {"measurement": "inhibition at 10 µM", "setting": "Potassium Channel [KATP]", "value": 11, "unit": "%"}, {"measurement": "inhibition at 10 µM", "setting": "hERG potassium channel", "value": 2, "unit": "%"}, {"measurement": "% Inhibition at 10 µM", "setting": "Rolipram", "value": 61, "unit": "%"}, {"measurement": "inhibition at 10 µM", "setting": "Tachykinin NK1", "value": 4, "unit": "%"}, {"measurement": "inhibition at 10 µM", "setting": "[7]", "value": 1, "unit": "%"}]}]}
